We go through 15 compounds from patent US8183263B2 (priority 2007, dated 2012).

In this assay the test system is HCV replicon. As to the kind of experiment: HCV replicon replication assay (NPT level by captured ELISA). The class given is cell-based. To be noted: Hepatitis C virus, 72 h; Huh-7 HCV replicon-containing cells, three days incubation; read-out: Activity (inhibition of HCV replicon replication). An outline of the steps:
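Huh-7 cells carrying HCV subgenomic replicon (NS3–NS5B, neo reporter) treated 3 days at 37 °C with 6 concentrations from 10 to 0.03 micromolar in G418-free medium, equal DMSO across wells. Replication measured on day four as NPTII level by in-cell captured ELISA on fixed cells; interferon alpha as positive control.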
In general terms: In antiviral work, replicon cells carry a viral genome segment that copies itself.
Regarding `CCCCCCCCc1oc2ccc(Nc3nc(-c4cccnc4)c(F)s3)cc2c1Cl` [Cmp 189, N-(3-chloro-2-octylbenzofuran-5-yl)-5-fluoro-4-(pyridin-3-yl)thiazol-2-amine], the EC50 was < 1 µM.
For `Fc1sc(Nc2ccc(OCCCCC3CCCC3)c(C(F)(F)F)c2)nc1-c1cccnc1` [Cmp 190, N-(4-(4-cyclopentylbutoxy)-3-(trifluoromethyl)phenyl)-5-fluoro-4-(pyridin-3-yl)thiazol-2-amine] the value was < 1 µM; for `Fc1sc(Nc2ccc(OCCC#CC3CCCC3)c(C(F)(F)F)c2)nc1-c1cccnc1` [Cmp 191, N-(4-(4-cyclopentylbut-3-ynyloxy)-3-(trifluoromethyl)phenyl)-5-fluoro-4-(pyridin-3-yl)thiazol-2-amine], < 1 µM; for `CCCOCCCCCc1ccc(Nc2nc(-c3cccnc3)c(F)s2)cc1C(F)(F)F` [Cmp 192, 5-fluoro-N-(4-(5-propoxypentyl)-3-(trifluoromethyl)phenyl)-4-(pyridin-3-yl)thiazol-2-amine], < 1 µM.
In the case of `CCCCCCCCc1cc2cc(Nc3nc(-c4cncc(C#N)c4)cs3)ccc2o1` [Cmp 203, 5-(2-(2-octylbenzofuran-5-ylamino)thiazol-4-yl)nicotinonitrile] it was < 1 µM; in that of `CCCCCCCCOc1ccc(Nc2nc(-c3ccc4nncn4c3)c(F)s2)cc1C(F)(F)F` [Cmp 214, 4-([1,2,4]triazolo[4,3-a]pyridin-6-yl)-5-fluoro-N-(4-(octyloxy)-3-(trifluoromethyl)phenyl)thiazol-2-amine], < 1 µM; in that of `CCCCCCCC(=O)c1ccc(Nc2nc(-c3cccnc3)c(F)s2)cc1C(F)(F)F` [Cmp 215, 1-(4-(5-fluoro-4-(pyridin-3-yl)thiazol-2-ylamino)-2-(trifluoromethyl)phenyl)octan-1-one], < 1 µM.
In the case of `Fc1ccc(CCCCCc2ccc(Nc3nc(-c4cccnc4)cs3)cc2C(F)(F)F)cc1` [Cmp 216, N-(4-(5-(4-fluorophenyl)pentyl)-3-(trifluoromethyl)phenyl)-4-(pyridin-3-yl)thiazol-2-amine] it was < 1 µM; in that of `Fc1ccc(CCCCCc2ccc(Nc3nc(-c4cccnc4)c(F)s3)cc2C(F)(F)F)cc1` [Cmp 217, 5-fluoro-N-(4-(5-(4-fluorophenyl)pentyl)-3-(trifluoromethyl)phenyl)-4-(pyridin-3-yl)thiazol-2-amine], < 1 µM.
For `CCCCCCCC(C)Oc1ccc(Nc2nc(-c3cccnc3)c(F)s2)cc1C(F)(F)F` (stereo not drawn) [Cmp 218, 5-fluoro-N-(4-(nonan-2-yloxy)-3-(trifluoromethyl)phenyl)-4-(pyridin-3-yl)thiazol-2-amine], the EC50 was < 1 µM.
Regarding `CCCCCCCCc1ccc(Nc2nc(-c3ccccc3)c(CC(=O)O)s2)cc1C(F)(F)F` [Cmp 219, 2-(2-(4-octyl-3-(trifluoromethyl)phenylamino)-4-phenylthiazol-5-yl)acetic acid], the EC50 fell in the range of 1 to 10 µM.
In the case of `CCCCCOCCCc1ccc(Nc2nc(-c3cccnc3)c(F)s2)cc1C(F)(F)F` [Cmp 220, 5-fluoro-N-(4-(3-(pentyloxy)propyl)-3-(trifluoromethyl)phenyl)-4-(pyridin-3-yl)thiazol-2-amine] it was < 1 µM; in that of `CCCCCCCC(C)(C)Oc1ccc(Nc2nc(-c3cccnc3)c(F)s2)cc1C(F)(F)F` [Cmp 221, 5-fluoro-N-(4-(2-methylnonan-2-yloxy)-3-(trifluoromethyl)phenyl)-4-(pyridin-3-yl)thiazol-2-amine], < 1 µM; in that of `CCCOCCC#Cc1ccc(Nc2nc(-c3cccnc3)c(F)s2)cc1C(F)(F)F` [Cmp 222, 5-fluoro-N-(4-(4-propoxybut-1-ynyl)-3-(trifluoromethyl)phenyl)-4-(pyridin-3-yl)thiazol-2-amine], < 1 µM.
Turning to `Fc1sc(Nc2ccc(CCCCCOC3CCCC3)c(C(F)(F)F)c2)nc1-c1cccnc1` [Cmp 230, N-(4-(5-(cyclopentyloxy)pentyl)-3-(trifluoromethyl)phenyl)-5-fluoro-4-(pyridin-3-yl)thiazol-2-amine], the EC50 is < 1 µM.
